Data: patent US6500817B1, “Thiazolyl urea derivatives and their utilization as antiviral agents” (Bayer Aktiengesellschaft, priority 1999, dated 2002)

Row | melting point | SMILES
1 | 208 °C | CNS(=O)(=O)c1sc(N(Cc2ccncc2)C(=O)Nc2ccc(N3CCCC3)cc2)nc1C
2 | 160 °C | CCOc1ccc(NC(=O)N(CCO)c2nc(C)c(S(=O)(=O)N(C)C)s2)cc1
3 | 204 °C | CCOc1ccc(NC(=O)N(CCN2CCOCC2)c2nc(C)c(S(=O)(=O)N(C)C)s2)cc1
4 | 141 °C | CCOc1ccc(NC(=O)N(CCC2CCCN2C)c2nc(C)c(S(=O)(=O)NC)s2)cc1 (stereo not shown)
5 | 170 °C | CCOc1ccc(NC(=O)N(C)c2nc(Cl)c(S(=O)(=O)NCc3ccccc3)s2)cc1
6 | 137 °C | CCCNS(=O)(=O)c1sc(N(CCC)C(=O)Nc2ccc(-c3ccccc3)cc2)nc1C
7 | 241 °C | CN(C(=O)Nc1ccc(N2CCOCC2)cc1)c1nc(Cl)c(S(=O)(=O)NC2CC2)s1
8 | 157 to 160 °C (dec.) | CNS(=O)(=O)c1sc(N(C)C(=O)Nc2ccc(N3CCCCC3)cc2)nc1C
9 | 134 °C | CCOc1ccc(NC(=O)N(C)c2nc(C)c(S(=O)(=O)NCc3cccc(OC)c3)s2)cc1
10 | 138 °C | Cc1nc(N(CCN(C)C)C(=O)Nc2ccc(-c3ccccc3)cc2)sc1S(N)(=O)=O
11 | 195 °C (dec.) | Cc1nc(N(C)C(=O)Nc2ccc(N3CCCC3=O)cc2)sc1S(=O)(=O)N(C)C
12 | 156 °C | Cc1nc(N(C)C(=O)Nc2ccc(OCC(O)CO)cc2)sc1S(=O)(=O)N(C)C (stereo not shown)
13 | 179 °C | CCCN(C(=O)Nc1ccc(N2CCOCC2)cc1)c1nc(C)c(S(=O)(=O)NC)s1
14 | 168 °C | CCOc1ccc(NC(=O)N(CCN(C)C)c2nc(C)c(S(=O)(=O)NC3CC3)s2)cc1
15 | 157 °C | COCCNS(=O)(=O)c1sc(N(C)C(=O)Nc2ccc(-c3ccccc3)cc2)nc1C
16 | 204 °C | CCc1nc(N(C)C(=O)Nc2ccc(-c3ccccc3)cc2)sc1S(=O)(=O)NC
17 | 186 to 187 °C | Cc1nc(N(C)C(=O)Nc2ccc(N3CC=CC3)cc2)sc1S(=O)(=O)NC1CC1
18 | 188 °C | CCOc1ccc(NC(=O)N(CCn2ccnn2)c2nc(C)c(S(=O)(=O)NC)s2)cc1
19 | 196 °C | CNS(=O)(=O)c1sc(N(CCCN(C)C)C(=O)Nc2ccc(-c3ccccc3)cc2)nc1C
20 | 177 °C | CCc1nc(N(CCCN(CC)CC)C(=O)Nc2ccc(-c3ccccc3)cc2)sc1S(N)(=O)=O
21 | 192 °C | CCOc1ccc(NC(=O)N(C)c2nc(C)c(S(=O)(=O)NC(C)C)s2)cc1
22 | 190 °C | CCN(C(=O)Nc1ccc(N2CCOCC2)cc1)c1nc(Cl)c(S(=O)(=O)N(C)C)s1

Row | melting point | SMILES
23 | 188 °C | C=C(Nc1ccc(N2CCOCC2)cc1)Nc1nc(C)c(S(=O)(=O)N(C)C)s1
24 | 194 °C | CCOc1ccc(NC(=O)N(Cc2ccccn2)c2nc(C)c(S(=O)(=O)NC)s2)cc1
25 | 160 °C | CCCN(C(=O)Nc1ccc(-c2ccccc2)cc1)c1nc(C)c(S(=O)(=O)NCC)s1
26 | 162 to 163 °C | CC(=O)Nc1cc(N2CCCC2)ccc1NC(=O)N(C)c1nc(C)c(S(=O)(=O)N(C)C)s1 [169]
27 | 185 °C | Cc1nc(N(C)C(=O)Nc2ccc(N3CCCCC3)cc2)sc1S(=O)(=O)N(C)C
28 | 201 °C | COCCN(C(=O)Nc1ccc(N2CCOCC2)cc1)c1nc(C)c(S(N)(=O)=O)s1
29 | 188 °C | CNS(=O)(=O)c1sc(N(CCN(C)C)C(=O)Nc2ccc(N3CCCC3)cc2)nc1C
30 | 123 °C | Cc1nc(N(CCN(C)C)C(=O)Nc2ccc(N3CCOCC3)cc2)sc1S(N)(=O)=O
31 | 188 °C | CNS(=O)(=O)c1sc(N(CCCN2CCN(C)CC2)C(=O)Nc2ccc(-c3ccccc3)cc2)nc1C
32 | 219 °C | CC(=O)Nc1cccc(Oc2ccc(NC(=O)N(C)c3nc(Cl)c(S(=O)(=O)N(C)C)s3)cc2)c1
33 | 198 °C | Cc1nc(N(C)C(=O)Nc2ccc(N3CCCCC3)cc2)sc1S(=O)(=O)NC1CC1
34 | 150 °C | CCOc1ccc(NC(=O)N(CCCN)c2nc(C)c(S(=O)(=O)NC)s2)cc1.Cl
35 | 183 °C | CCOc1ccc(NC(=O)N(C)c2nc(Cl)c(S(=O)(=O)NCN3CCCCC3)s2)cc1
36 | 130 °C | CCOc1ccc(NC(=O)N(CCCNC(=O)OC(C)(C)C)c2nc(C)c(S(=O)(=O)N(C)C)s2)cc1
37 | 188 to 189 °C (dec.) | CNS(=O)(=O)c1sc(N(C)C(=O)Nc2ccc(N3CCC(NC(=O)OC(C)(C)C)C3)cc2)nc1C (stereo not shown)
38 | 185 °C | CCOc1ccc(NC(=O)N(CCCN(C)C)c2nc(C)c(S(=O)(=O)NC)s2)cc1
39 | 194 °C | Cc1nc(N(C)C(=O)Nc2ccc(-n3cccc3)cc2)sc1S(=O)(=O)NC1CC1
40 | 168 °C | CCOc1ccc(NC(=O)N(C)c2nc(C)c(S(=O)(=O)NCC3CCCO3)s2)cc1 (stereo not shown)
41 | 147 °C | CCOc1ccc(NC(=O)N(CCCO)c2nc(C)c(S(=O)(=O)N(C)C)s2)cc1
42 | 179 °C | CCOc1ccc(NC(=O)N(C)c2nc(C)c(S(=O)(=O)NC)s2)cc1
43 | 176 °C | Cc1nc(N(C)C(=O)Nc2ccc(-c3ccccc3)cc2)sc1S(=O)(=O)NCC1CC1
44 | 144 °C | CCCN(C(=O)Nc1ccc(-c2ccccc2)cc1)c1nc(C)c(S(N)(=O)=O)s1

Row | melting point | SMILES
45 | 171 °C | Cc1nc(N(C)C(=O)Nc2ccc(N3CCOCC3)cc2)sc1S(=O)(=O)N(C)C [67]
46 | 171 °C | CCOc1ccc(NC(=O)N(C)c2ncc(S(=O)(=O)NCc3ccccc3)s2)cc1
47 | 154 °C | CCCN(C(=O)Nc1ccc(OCC)cc1)c1nc(C)c(S(=O)(=O)NC)s1
48 | 198 °C | Cc1nc(N(C)C(=O)Nc2ccc(N3CCOCC3)cc2)sc1S(=O)(=O)N(C)C1CC1
49 | 171 °C | CCOc1ccc(NC(=O)N(CCOC)c2nc(C)c(S(N)(=O)=O)s2)cc1
50 | 156 °C | CCCN(C(=O)Nc1ccc(-c2ccccc2)cc1)c1nc(C)c(S(=O)(=O)NC)s1
51 | 158 °C | CCOc1ccc(NC(=O)N(C)c2nc(C)c(S(=O)(=O)NCc3cccnc3)s2)cc1
52 | 196 °C | CN(C(=O)Nc1ccc(N2CCOCC2)c(F)c1)c1nc(Cl)c(S(=O)(=O)N(C)C)s1
53 | 164 °C | CN(C(=O)Nc1ccc(OC(CF)CF)cc1)c1nc(Cl)c(S(=O)(=O)N(C)C)s1
54 | 240 °C | CN(C)C(=O)Nc1ccc(NC(=O)N(C)c2nc(Cl)c(S(=O)(=O)N(C)C)s2)cc1
55 | 137 °C | CCOc1ccc(NC(=O)Nc2nc(C)c(S(=O)(=O)NCCOC)s2)cc1
56 | 163 °C | CC(=O)N1CCc2c(cccc2Oc2ccc(NC(=O)N(C)c3nc(Cl)c(S(=O)(=O)N(C)C)s3)cc2)C1
57 | 212 °C | CCOc1ccc(NC(=O)N(Cc2cccnc2)c2nc(C)c(S(=O)(=O)NC)s2)cc1
58 | 158 °C | Cc1nc(N(C)C(=O)Nc2ccc(OCC(C)(C)C)cc2)sc1S(=O)(=O)N(C)C
59 | 232 °C | CCn1c(=O)oc2cc(NC(=O)N(C)c3nc(Cl)c(S(=O)(=O)N(C)C)s3)ccc21
60 | 188 °C | CCOc1ccc(NC(=O)N(CCCN2CCCC2=O)c2nc(C)c(S(=O)(=O)NC)s2)cc1
61 | 118 °C | CCOc1ccc(N(C)C(=O)Nc2nc(C)c(S(=O)(=O)N(C)C)s2)cc1
62 | 184 °C | CCOc1ccc(NC(=O)N(CCNC(C)=O)c2nc(C)c(S(=O)(=O)N(C)C)s2)cc1
63 | 193 °C | COCCN(C(=O)Nc1ccc(-c2ccccc2)cc1)c1nc(C)c(S(N)(=O)=O)s1 [195]
64 | 147 °C | CCCOc1ccc(NC(=O)N(C)c2nc(C)c(S(=O)(=O)N(C)C)s2)cc1
65 | 132 °C | CCCN(C(=O)Nc1ccc(OCC)cc1)c1nc(Cl)c(S(=O)(=O)N(C)C)s1
66 | 84 °C | Cc1nc(N(C)C(=O)Nc2ccc(-c3cccn3C(=O)OC(C)(C)C)cc2)sc1S(=O)(=O)N(C)C

Row | melting point | SMILES
67 | 188 °C | CNS(=O)(=O)c1sc(N(CCOC)C(=O)Nc2ccc(N3CCOCC3)cc2)nc1C
68 | 206 °C | CNS(=O)(=O)c1sc(N(Cc2ccccn2)C(=O)Nc2ccc(N3CCOCC3)cc2)nc1C
69 | > 250 °C | Cc1nc(NC(=O)Nc2ccc(-c3ccccc3)cc2)sc1S(=O)(=O)N(C)C
70 | 141 °C | CCCN(C(=O)Nc1ccc(OCC)cc1)c1nc(C)c(S(=O)(=O)NC2CC2)s1
71 | 161 °C | CCOc1ccc(NC(=O)N(CCCO)c2nc(C)c(S(=O)(=O)NC)s2)cc1
72 | 206 °C | Cc1nc(N(C)C(=O)Nc2ccc(N3CCOCC3)cc2)sc1S(=O)(=O)N1CCCCC1
73 | 156 °C | COCCN(C)S(=O)(=O)c1sc(N(C)C(=O)Nc2ccc(N3CCOCC3)cc2)nc1C
74 | 196 °C | CNS(=O)(=O)c1sc(N(CCN(C)C)C(=O)Nc2ccc(N3CCOCC3)cc2)nc1C
75 | 203 °C | CN(C(=O)Nc1ccc(N2CCOCC2)c(Cl)c1)c1nc(Cl)c(S(=O)(=O)N(C)C)s1
76 | 187 °C | CCOc1ccc(NC(=O)N(Cc2ccccc2)c2nc(C)c(S(=O)(=O)N(C)C)s2)cc1
77 | 184 °C | CNS(=O)(=O)c1sc(N(CCOC)C(=O)Nc2ccc(N3CCCC3)cc2)nc1C
78 | 185 °C | Cc1nc(N(C)C(=O)Nc2ccc(N3CC=CC3)cc2)sc1S(=O)(=O)N(C)C
79 | 177 °C | CCOc1ccc(NC(=O)OCCN(C(=O)Nc2ccc(OCC)cc2)c2nc(C)c(S(=O)(=O)N(C)C)s2)cc1
80 | 197 °C | CCOc1ccc(NC(=O)N(Cc2nc3ccccc3[nH]2)c2nc(C)c(S(=O)(=O)NC)s2)cc1
81 | 178 °C | CCOc1ccc(NC(=O)N(C)c2nc(C)c(S(=O)(=O)NCc3ccc4c(c3)OCO4)s2)cc1
82 | 161 °C | CCCN(C(=O)Nc1ccc(N2CCOCC2)cc1)c1nc(C)c(S(=O)(=O)N(C)C)s1
83 | 154 °C | CNS(=O)(=O)c1sc(N(CCN(C)C)C(=O)Nc2ccc(-c3ccccc3)cc2)nc1C
84 | 168 °C | COC(=O)c1ccc(N(C)C(=O)N(C)c2nc(Cl)c(S(=O)(=O)N(C)C)s2)cc1
85 | 196 °C | CCOc1ccc(NC(=O)N(C)c2nc(C)c(S(N)(=O)=O)s2)cc1
86 | 145 °C | CCCN(C(=O)Nc1ccc(OCC)cc1)c1nc(C)c(S(=O)(=O)NCc2ccccc2)s1
87 | 161 °C | CCCOc1ccc(NC(=O)N(C)c2nc(C)c(S(=O)(=O)NC)s2)cc1
88 | 208 to 209 °C | CNS(=O)(=O)c1sc(N(C)C(=O)Nc2ccc(N3CC=CC3)cc2)nc1C
